One assay concerns the target human TLR9 (Homo sapiens (Human), UniProt Q9NR96). Kind of assay: TLR9 inhibition reporter assay (HEK-Blue SEAP).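 Further: SEAP driven by IFN-β minimal promoter carrying five NF-κB and AP-1 sites, 22 h at 37 °C, compounds 0.05 nM–50 µM, inhibition scaled between agonist-plus-DMSO and reference-inhibitor wells.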 In general terms: Reporter assays use an easily measured gene product as a stand-in for the process of interest.
Another assay has as its target human TLR7 (Homo sapiens (Human), UniProt Q9NYK1). Kind of assay: TLR7 inhibition reporter assay (HEK-Blue SEAP). It counts as cell-based. As to conditions: HEK-Blue cells overexpressing human TLR7, gardiquimod 7.5 μM stimulation.
The next assay deals with human TLR8 (Homo sapiens (Human), UniProt Q9NR97). Kind of assay: TLR8 inhibition reporter assay (HEK-Blue SEAP).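 Further: SEAP driven by IFN-β minimal promoter with five NF-κB and AP-1 sites, compounds tested 0.05 nM to 50 µM, 22 h incubation, inhibition relative to agonist plus DMSO wells.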
Sequence of human TLR8 (Q9NR97 27-1041): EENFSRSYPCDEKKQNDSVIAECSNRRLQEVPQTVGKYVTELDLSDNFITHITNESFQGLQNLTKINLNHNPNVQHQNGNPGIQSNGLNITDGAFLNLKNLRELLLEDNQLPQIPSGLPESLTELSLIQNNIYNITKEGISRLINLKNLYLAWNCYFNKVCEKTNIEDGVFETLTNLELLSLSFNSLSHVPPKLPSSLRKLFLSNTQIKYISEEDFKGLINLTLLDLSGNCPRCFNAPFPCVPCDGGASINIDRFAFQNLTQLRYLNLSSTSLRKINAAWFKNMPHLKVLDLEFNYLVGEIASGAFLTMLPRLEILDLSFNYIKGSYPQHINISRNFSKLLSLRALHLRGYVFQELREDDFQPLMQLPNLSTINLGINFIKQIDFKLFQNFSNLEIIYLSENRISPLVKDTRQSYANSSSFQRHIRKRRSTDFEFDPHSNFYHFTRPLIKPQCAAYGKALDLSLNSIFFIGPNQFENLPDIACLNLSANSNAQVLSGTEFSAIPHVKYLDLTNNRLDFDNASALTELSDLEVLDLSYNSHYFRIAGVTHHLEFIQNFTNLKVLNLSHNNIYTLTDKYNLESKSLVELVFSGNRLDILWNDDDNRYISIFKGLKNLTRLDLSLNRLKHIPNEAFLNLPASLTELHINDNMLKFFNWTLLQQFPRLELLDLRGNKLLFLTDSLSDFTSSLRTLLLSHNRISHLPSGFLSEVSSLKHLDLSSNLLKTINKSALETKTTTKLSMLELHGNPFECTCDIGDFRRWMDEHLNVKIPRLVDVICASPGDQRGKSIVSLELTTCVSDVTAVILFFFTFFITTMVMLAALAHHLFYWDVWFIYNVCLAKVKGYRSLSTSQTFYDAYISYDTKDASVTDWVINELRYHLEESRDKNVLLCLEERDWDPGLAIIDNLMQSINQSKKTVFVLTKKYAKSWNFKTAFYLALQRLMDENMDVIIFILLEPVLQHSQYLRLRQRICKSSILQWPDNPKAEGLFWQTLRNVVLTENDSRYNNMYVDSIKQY
The mark [1] stands for this setting: read-out: TLR9 IC50; HEK-Blue cells overexpressing human TLR9, ODN2006 5 nM stimulation, SEAP reporter.
The mark [2] stands for this setting: read-out: TLR8 IC50; HEK-Blue cells overexpressing human TLR8, R848 15.9 μM stimulation, SEAP reporter.

Read-outs that look alike come from different tables or passages of the source.

35 molecules from patent publication US11912703B2, “6-azaindole compounds” (BRISTOL-MYERS SQUIBB COMPANY, priority 2017, dated 2024) can be followed below.

Sequence of human TLR9 (Q9NR96 26-1032): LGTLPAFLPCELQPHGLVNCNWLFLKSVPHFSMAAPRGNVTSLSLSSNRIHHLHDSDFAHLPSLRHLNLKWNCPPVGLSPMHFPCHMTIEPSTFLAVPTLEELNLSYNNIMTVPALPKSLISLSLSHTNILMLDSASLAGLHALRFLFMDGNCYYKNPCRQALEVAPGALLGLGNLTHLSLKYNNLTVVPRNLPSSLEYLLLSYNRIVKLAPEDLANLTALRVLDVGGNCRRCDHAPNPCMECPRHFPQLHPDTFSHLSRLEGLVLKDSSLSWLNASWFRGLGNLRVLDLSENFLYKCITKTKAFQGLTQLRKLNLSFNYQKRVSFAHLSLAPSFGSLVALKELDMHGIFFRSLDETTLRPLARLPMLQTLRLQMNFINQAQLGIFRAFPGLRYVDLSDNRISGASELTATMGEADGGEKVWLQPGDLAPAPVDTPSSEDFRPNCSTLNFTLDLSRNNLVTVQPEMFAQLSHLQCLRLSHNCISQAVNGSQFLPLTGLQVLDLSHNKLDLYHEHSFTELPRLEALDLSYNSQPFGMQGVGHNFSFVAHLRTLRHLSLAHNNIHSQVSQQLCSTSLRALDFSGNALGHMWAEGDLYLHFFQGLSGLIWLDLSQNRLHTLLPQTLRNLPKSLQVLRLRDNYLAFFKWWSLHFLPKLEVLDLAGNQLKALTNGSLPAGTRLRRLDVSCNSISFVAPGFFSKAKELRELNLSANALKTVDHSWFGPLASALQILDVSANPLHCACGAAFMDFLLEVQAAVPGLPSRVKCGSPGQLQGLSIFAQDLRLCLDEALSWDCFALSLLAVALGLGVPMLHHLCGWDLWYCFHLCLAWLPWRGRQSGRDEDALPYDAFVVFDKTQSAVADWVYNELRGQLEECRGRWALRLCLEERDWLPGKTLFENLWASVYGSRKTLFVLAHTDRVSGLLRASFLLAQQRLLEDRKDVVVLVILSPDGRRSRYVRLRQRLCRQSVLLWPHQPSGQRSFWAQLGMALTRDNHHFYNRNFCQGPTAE
Sequence of human TLR7 (Q9NYK1 27-1049): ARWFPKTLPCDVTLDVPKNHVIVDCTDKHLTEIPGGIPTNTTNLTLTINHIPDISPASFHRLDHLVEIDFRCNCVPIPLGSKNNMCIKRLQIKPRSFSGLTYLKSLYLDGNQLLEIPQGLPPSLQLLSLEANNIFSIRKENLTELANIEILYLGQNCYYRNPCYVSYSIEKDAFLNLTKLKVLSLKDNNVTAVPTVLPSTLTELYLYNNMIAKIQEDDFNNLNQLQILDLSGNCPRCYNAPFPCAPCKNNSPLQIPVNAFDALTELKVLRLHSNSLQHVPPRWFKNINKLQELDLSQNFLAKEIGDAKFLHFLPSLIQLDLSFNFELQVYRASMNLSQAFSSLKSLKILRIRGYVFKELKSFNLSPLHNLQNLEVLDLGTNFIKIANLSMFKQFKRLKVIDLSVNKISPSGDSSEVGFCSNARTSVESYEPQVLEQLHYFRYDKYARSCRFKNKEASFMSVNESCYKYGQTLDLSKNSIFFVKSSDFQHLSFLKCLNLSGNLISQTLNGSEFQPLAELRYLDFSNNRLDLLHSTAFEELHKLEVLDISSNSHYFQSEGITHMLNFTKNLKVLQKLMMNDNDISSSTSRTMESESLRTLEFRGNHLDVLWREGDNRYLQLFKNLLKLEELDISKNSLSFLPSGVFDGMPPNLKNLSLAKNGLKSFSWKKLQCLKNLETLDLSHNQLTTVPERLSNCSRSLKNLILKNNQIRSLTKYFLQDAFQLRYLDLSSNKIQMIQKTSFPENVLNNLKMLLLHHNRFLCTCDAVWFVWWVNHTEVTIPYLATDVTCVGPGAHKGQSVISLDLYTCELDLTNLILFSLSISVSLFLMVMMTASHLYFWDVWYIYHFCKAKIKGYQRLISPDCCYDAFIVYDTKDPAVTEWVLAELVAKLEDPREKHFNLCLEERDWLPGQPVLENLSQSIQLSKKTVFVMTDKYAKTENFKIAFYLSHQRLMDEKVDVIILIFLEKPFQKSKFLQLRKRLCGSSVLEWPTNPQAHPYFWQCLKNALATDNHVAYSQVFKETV
Protocol for human TLR7: (§1) HEK-Blue™-cells (Invivogen) overexpressing human TLR7, TLR8 or TLR9 receptors were used for screening inhibitors of these receptors using an inducible SEAP (secreted embryonic alkaline phosphatase) reporter gene under the control of the IFN-β minimal promoter fused to five NF-κB and AP-1-binding sites. Briefly, cells are seeded into Greiner 384 well plates (15000 cells per well for TLR7, 20,000 for TLR8 and 25,000 for TLR9) and then treated with test compounds in DMSO to yield a final dose response concentration range of 0.05 nM-50 μM. After a 30 minute compound pre-treatment at room temperature, the cells are then stimulated with a TLR7 ligand (gardiquimod at a final concentration of 7.5 μM), TLR8 ligand (R848 at a final concentration of 15.9 μM) or TLR9 ligand (ODN2006 at a final concentration of 5 nM) to activate NF-κB and AP-1 which induce the production of SEAP. After a 22 hour incubation at 37° C., 500 CO2, SEAP levels are determined with the addition of HEK-Blue™ Detection reagent (Invivogen), a cell culture medium that allows for detection of SEAP, according to manufacturer's specifications.
Protocol for human TLR8: as §1

By IC50 is commonly meant the concentration needed to halve the response being measured. Turning to `Cc1c(-c2[nH]c3cnc(C4CCC(N5CC6(COC6)C5)CC4)c(C)c3c2C(C)C)cn2ncnc2c1C` (stereo not drawn) [Example 57], the figures for the 50% inhibitory concentration (IC50) at human TLR9 (setting [1]), on human TLR7 and on human TLR8 (setting [2]) were 0.682 µM, 0.0049 µM and 0.019 µM, respectively.
In the same order, the values of `Cc1c(-c2[nH]c3cnc(C4CCN(C(=O)CN(C)C)CC4)c(F)c3c2C(C)C)cn2ncnc2c1C` [Example 29] are 1.7 µM, 0.0043 µM and 0.0047 µM.
In the same order, the values of `COc1cc(-c2[nH]c3cnc(C4CCC(NCC5(C)COC5)C4)cc3c2C(C)C)cn2ncnc12` (stereo not drawn) [Example 276] are 0.114 µM, 0.0077 µM and 0.0012 µM.
As for `COc1cc(-c2[nH]c3cnc(N4CCC(N5CC6(COC6)C5)CC4)c(F)c3c2C(C)C)cn2ncnc12` [Example 254], the half-inhibitory concentration (IC50) on human TLR9 (setting [1]) stood at 3.01 µM; on human TLR7, 0.0015 µM; at human TLR8 (setting [2]), 0.00055 µM.
With `Cc1c(-c2[nH]c3cnc(C4CCC(NC5CCOCC5)CC4)c(F)c3c2C(C)C)cn2ncnc2c1C` (stereo not drawn) [Example 134], the IC50 at human TLR9 (setting [1]) came to 1.02 µM; on human TLR7, 0.00098 µM; at human TLR8 (setting [2]), 0.00027 µM.
In the same order, the values of `COc1cc(-c2[nH]c3cnc(C4CCC(N(C)C)CC4)cc3c2C(C)C)cn2ncnc12` (stereo not drawn) [Example 340] are 11.5 µM, 1.27 µM and 0.708 µM.
In the case of `COc1cc(-c2[nH]c3cnc(N4CC5(CN(CC6CC6)C5)C4)c(F)c3c2C(C)C)cn2ncnc12` [Example 374], the values for the IC50 on human TLR9 (setting [1]), against human TLR7 and at human TLR8 (setting [2]) were 5.47 µM, 0.006 µM and 0.039 µM, respectively.
In the same order, the values of `COc1cc(-c2[nH]c3cnc(C4CCC(NC5COC5)C4)cc3c2C(C)C)cn2ncnc12` (stereo not drawn) [Example 274] are 0.648 µM, 0.042 µM and 0.035 µM.
In the same order, the values of `COc1cc(-c2[nH]c3cnc(N4CCC(NC5CCOCC5)CC4)c(C)c3c2C(C)C)cn2ncnc12` [Example 201] are 1.79 µM, 0.00049 µM and 0.00052 µM.
In the same order, the values of `COc1cc(-c2[nH]c3cnc(C4CCC(N5CC6(COC6)C5)C4)cc3c2C(C)C)cn2ncnc12` (stereo not drawn) [Example 141] are 0.482 µM, 0.027 µM and 0.025 µM.
`COc1cc(-c2[nH]c3cnc(N4CCN(CC(F)(F)F)CC4)c(F)c3c2C(C)C)cn2ncnc12` [Example 366]: the figures for the IC50 at human TLR9 (setting [1]), at human TLR7 and at human TLR8 (setting [2]) were 16.2 µM, 0.0038 µM and 0.039 µM, respectively.
In the same order, the values of `Cc1c(-c2[nH]c3cnc(C4CCC(NC5CCOCC5)CC4)c(C)c3c2C(C)C)cn2ncnc2c1C` (stereo not drawn) [Example 119] are 0.558 µM, 0.0081 µM and 0.011 µM.
In the same order, the values of `COc1cc(-c2[nH]c3cnc(C4CCN(CC(=O)N(C)C)CC4)cc3c2C(C)C)cn2ncnc12` [Example 298] are 0.459 µM, 0.014 µM and 0.075 µM.
Turning to `COc1cc(-c2[nH]c3cnc(C4CCC(NC5COC5)CC4)c(F)c3c2C(C)C)cn2ncnc12` (stereo not drawn) [Example 223], the IC50 worked out at 1.11 µM on human TLR9 (read-out: TLR9 IC50; HEK-Blue cells overexpressing human TLR9; ODN2006 5 nM stimulation; SEAP reporter), 0.0027 µM against human TLR7 and 0.0024 µM at human TLR8 (read-out: TLR8 IC50; HEK-Blue cells overexpressing human TLR8; R848 15.9 μM stimulation; SEAP reporter).
Regarding `COc1cc(-c2[nH]c3cnc(N4CCC(NC56CC(C5)C6)CC4)c(C)c3c2C(C)C)cn2ncnc12` [Example 56], the IC50 was 1.01 µM at human TLR9 (setting [1]), 0.0018 µM against human TLR7 and 0.0015 µM at human TLR8 (setting [2]).
In the same order, the values of `COc1cc(-c2[nH]c3cnc(C4CCN(CCS(C)(=O)=O)CC4)c(C)c3c2C(C)C)cn2ncnc12` [Example 25] are 0.188 µM, 0.0023 µM and 0.0072 µM.
As to `COc1cc(-c2[nH]c3cnc(C4CCC(NC5(C)COC5)CC4)c(F)c3c2C(C)C)cn2ncnc12` (stereo not drawn) [Example 105], the IC50 was found to be 2.25 µM at human TLR9 (setting [1]) and 0.00059 µM on human TLR8 (setting [2]).
`Cc1c(-c2[nH]c3cnc(C4CCN(CC(=O)N(C)C)CC4)c(F)c3c2C(C)C)cn2ncnc2c1C` [Example 22]: the IC50 came to 0.0062 µM on human TLR7 and 0.0018 µM at human TLR8 (setting [2]).
Consider `COc1cc(-c2[nH]c3cnc(C4CCC(NCC(C)(C)OC)CC4)c(C)c3c2C(C)C)cn2ncnc12` (stereo not drawn) [Example 206], for which the IC50 on human TLR9 (setting [1]) was 0.26 µM; at human TLR8 (setting [2]), 0.013 µM.
In the same order, the values of `COc1cc(-c2[nH]c3cnc(C4CCC(NCC(C)(C)O)CC4)c(F)c3c2C(C)C)cn2ncnc12` (stereo not drawn) [Example 74] are 0.694 µM and 0.00077 µM.
For `COc1cc(-c2[nH]c3cnc(N4CCN(CCS(C)(=O)=O)CC4)c(F)c3c2C(C)C)cn2ncnc12` [Example 362], the concentration for half-maximal inhibition (IC50) came out at 0.0049 µM against human TLR7 and 0.004 µM at human TLR8 (setting [2]).
Consider `COc1cc(-c2[nH]c3cnc(C4CCC(N5CC(OC)C5)CC4)c(C)c3c2C(C)C)cn2ncnc12` (stereo not drawn) [Example 180], for which the half-inhibitory concentration (IC50) is 0.664 µM on human TLR9 (setting [1]) and 0.0096 µM on human TLR8 (setting [2]).
In the case of `COc1cc(-c2[nH]c3cnc(C4CCC(N5CC(OC)C5)CC4)c(C)c3c2C(C)C)cn2ncnc12` (stereo not drawn) [Example 62], the IC50 was 0.417 µM on human TLR9 (setting [1]) and 0.021 µM at human TLR8 (setting [2]).
As for `COc1cc(-c2[nH]c3cnc(N4CCC(N(C)CC(C)(C)C)CC4)c(F)c3c2C(C)C)cn2ncnc12` [Example 47], the half-inhibitory concentration (IC50) on human TLR9 (setting [1]) came out at 2.58 µM; at human TLR8 (setting [2]), 0.0015 µM.
In the same order, the values of `COc1cc(-c2[nH]c3cnc(C4CCC(NCC(C)(C)OC)CC4)c(C)c3c2C(C)C)cn2ncnc12` (stereo not drawn) [Example 207] are 0.437 µM and 0.0077 µM.
For `COc1cc(-c2[nH]c3cnc(C4CCC(NC5CCOCC5)CC4)c(F)c3c2C(C)C)cn2ncnc12` (stereo not drawn) [Example 160], the half-maximal inhibitory concentration (IC50) on human TLR9 (setting [1]) is 1.28 µM.
Same read-out and setting: next, `Cc1cc(-c2[nH]c3cnc(N4CCC(N(C)C(C)C)CC4)c(F)c3c2C(C)C)cn2ncnc12` [Example 68]: 5.29 µM.
On to `COc1cc(-c2[nH]c3cnc(C4CCC(NC5(C)COC5)CC4)c(F)c3c2C(C)C)cn2ncnc12` (stereo not drawn) [Example 192], for which the IC50 at human TLR9 (setting [1]) was found to be 3.14 µM; at human TLR8 (setting [2]) it was 0.0039 µM.
With `COc1cc(-c2[nH]c3cnc(C4CCC(N(C)C(C)C)C4)cc3c2C(C)C)cn2ncnc12` (stereo not drawn) [Example 63], on human TLR9 (setting [1]), the half-maximal inhibitory concentration (IC50) stood at 2.99 µM.
`COc1cc(-c2[nH]c3cnc(N4CCN(CC(=O)N5CCOCC5)CC4)c(F)c3c2C(C)C)cn2ncnc12` [Example 363]: the 50% inhibitory concentration (IC50) was found to be 43.7 µM on human TLR9 (setting [1]) and 0.0037 µM on human TLR8 (setting [2]).
`COc1cc(-c2[nH]c3cnc(C4CCC(N(C)C(C)C)C4)cc3c2C(C)C)cn2ncnc12` (stereo not drawn) [Example 145]: at human TLR9 (setting [1]), the half-inhibitory concentration (IC50) is 0.506 µM.
As to `COc1cc(-c2[nH]c3cnc(C4CCC(N5CCC5)CC4)c(F)c3c2C(C)C)cn2ncnc12` (stereo not drawn) [Example 46], the half-inhibitory concentration (IC50) against human TLR7 amounted to 0.00098 µM; on human TLR8 (setting [2]), 0.0016 µM.
Regarding `Cc1cc(-c2[nH]c3cnc(C4CCNCC4)cc3c2C(C)C)cn2ncnc12` [Example 4, 6-(3-isopropyl-5-(piperidin-4-yl)-1h-pyrrolo[2,3-c]pyridin-2-yl)-8-methyl-[1,2,4]triazolo [1,5-a]pyridine], the figures for the IC50 at human TLR9 (setting [1]) and at human TLR8 (setting [2]) were 13.1 µM and 0.973 µM, respectively.
In the case of `COc1cc(-c2[nH]c3cnc(C4CCC(NC5CCOCC5)CC4)c(F)c3c2C(C)C)cn2ncnc12` (stereo not drawn) [Example 194], the IC50 on human TLR9 (setting [1]) was 0.575 µM.
As to `COc1cc(-c2[nH]c3cnc(C4CCC(NCC(C)(C)O)CC4)c(F)c3c2C(C)C)cn2ncnc12` (stereo not drawn) [Example 195], the values for the concentration for half-maximal inhibition (IC50) on human TLR9 (setting [1]) and on human TLR8 (setting [2]) were 0.577 µM and 0.003 µM, respectively.
